From patent US6339073B1, “Uses of nicotinamide adenine dinucleotide and its derivatives for treatment of malignant and infectious diseases” (Oxigene, Inc., priority 1997, dated 2002)

How the values were obtained:
[1] = system: HL60 (human promyeloid leukemia line) cells; assay: Measurement of in vitro cytotoxicity by apoptosis; type: cell-based
Procedure: Cell culture. HL60 (human promyeloid leukemia line) cells were cultured at a density of 0.5×106 to 1.0×10^6 cells/ml in RPMI medium supplemented with 10% fetal calf serum (FCS) at 37° C. in a 5% CO2 atmosphere. The cells were harvested by centrifugation and resuspended in fresh medium at a concentration of 1×106 to 2×10^6 cells/ml for bioassay purposes.
Measurement of in vitro cytotoxicity by apoptosis. HL60 cells were exposed in culture to 2 Gy radiation, 100 μM nMCA (neutral metoclopramide, Neu-Sensamide), 0-5000 μM NAD±10 mM, and±NADase inhibitor, 3-acetyl pyridine adenine dinucleotide, given 30 minutes before drug treatment. The % apoptosis was determined after 6 hours. The cytotoxicity was evaluated by morphological identification of apoptotic cells (400 ×magnification with phase contrast microscopy) using trypan blue exclusion (0.1% isotonic solution+5% serum) after 5 minutes incubation at room temperature. Apoptotic cells were identified as having chromatin condensation, shrinkage, membrane blebbing, fragmentation and appearance of “apoptotic bodies” (Kaufman et al, Cancer Res. 53:3976-3985, 1993).

[2] = system: HL60 cells; assay: cells
Procedure: Assessment of cytotoxicity in HL60 and K562 cells by clonogenic assay. The assay used is based on Schweitzer et al (Exper. Hematol. 21: 573-578, 1993). HL60 or K562 cells were cultured in 96-well microplates, at 800 cells per well, in a medium of 0.6% methyl cellulose (Methocel A4M, Dow Chemicals, USA), 10% fetal calf serum, RPMI 1640 (Life Technologies Ltd, UK), and gentamycin (50 μg/ml, Biological Industries, Israel). Microculture wells received 10 μl of NAD, NADP, NADH, ADP-ribose, nicotinamide (NAM), or 3-acetyl pyridine adenine dinucleotide solutions within which the final concentrations were adjusted to be between 0-5000 μM after addition of 190 μl cell-containing medium. Final methyl cellulose concentration was 0.6%. […] In the case of the radiosensitization experiments, the cells were irradiated with 1-2 Gy gamma radiation 15 minutes before addition of NAD. The central area of the bottom of each well (25% of total) was counted, and the counts of colonies and clusters expressed as % of control in order to avoid influences from inter-experimental baseline variations.

[3] = system: K562 leukemic cells; type: cell-based
Excerpt: Final methyl cellulose concentration was 0.6%.

[4] = system: human lung adenocarcinoma (H2981) xenograft; assay: Evaluation of antitumor activity of NAD in vivo; set-up: species or system Scid mice; conditions: NAD i.p. 25 or 50 mg/kg, 21 days
Procedure: Evaluation of antitumor activity of NAD in vivo. Scid mice (n=10 per group) were transplanted by subcutaneous injection of H-2981 (human adenocarcinoma) tumor tissue suspension in the right flank. When the tumors grew to 80-100 mm2, the animals were divided into three groups: Group 1 was injected i.p. with saline, Group 2 was injected i.p. with NAD at 25 mg/kg dissolved in saline, and Group 3 was injected i.p. with NAD at 50 mg/kg. The treatment schedule was daily Monday through Friday with no treatment Saturday and Sunday for 21 days. Tumor volumes were recorded every other day for 21 days and converted to AUC tumor growth values as previously described in detail (Hua et al, Anti-Cancer Drugs 6: 451-455, 1995).

Structure (SMILES) | clonogenic cytotoxicity (number of colonies) [2] | clonogenic cytotoxicity (number of colonies) [3] | other results
CC(=O)c1ccc[n+]([C@@H]2O[C@H](COP(=O)([O-])OP(=O)(O)OC[C@H]3O[C@@H](n4cnc5c(N)ncnc54)[C@H](O)[C@@H]3O)[C@@H](O)[C@H]2O)c1 [3-acetyl pyridine adenine dinucleotide, reference compound] | can nonetheless show cytotoxicity | can nonetheless show cytotoxicity | induction of apoptosis ([1]; % apoptosis after 6 hours, without NADase inhibitor): cannot induce cytoxicity by apoptosis
Nc1ncnc2c1ncn2[C@@H]1O[C@H](COP(=O)(O)OP(=O)(O)OC[C@H]2OC(O)[C@H](O)[C@@H]2O)[C@@H](O)[C@H]1O (some centres unmarked) [ADP-ribose] | equally effective at inducing cytotoxicity | the same | –
CCN(CC)CCNC(=O)c1cc(Cl)c(N)cc1OC [nMCA, neutral metoclopramide] | – | – | effect of NADase inhibitor on drug induced apoptosis ([1]; 10 mM 3-acetyl pyridine adenine dinucleotide given 30 minutes before drug, 6 hours): unaffected by the presence of the NADase inhibitor
NC(=O)C1=CN([C@@H]2O[C@H](COP(=O)(O)OP(=O)(O)OC[C@H]3O[C@@H](n4cnc5c(N)ncnc54)[C@H](O)[C@@H]3O)[C@@H](O)[C@H]2O)C=CC1 [NADH] | equally effective at inducing cytotoxicity | – | –
NC(=O)c1ccc[n+]([C@@H]2O[C@H](COP(=O)([O-])OP(=O)(O)OC[C@H]3O[C@@H](n4cnc5c(N)ncnc54)[C@H](O)[C@@H]3O)[C@@H](O)[C@H]2O)c1 [NAD, nicotinamide adenine dinucleotide] | – | the same | body weight loss or acute symptoms [4]: no significant body weight loss or acute symptoms; IC50 ([2]; Homo sapiens, HL-60, 144 h, read-out: Doses that result in >50% inhibition of clonogenicity): < 500 µM
NC(=O)c1cccnc1 [Nicotinamide, nicotinamide] | little to no effect on clonogenicity | – | –
